Results reported in patent US20230064363A1, “MATURATION OF SPERMATOGONIAL CELLS IN VITRO BT GROWTH FACTORS AND HORMONES” (B.G. Negev Technologies & Applications Ltd., at Ben-Gurion …, priority 2020, published 2023).
Where two headings read alike, the source gives them in different places.

Columns and labels:
[1] = tested on: testes of immature mice
[2] = tested on: Sertoli cells; settings: cells isolated from seminiferous tubules ten days post-treatment, compared to control
Method: Tubular Cell Isolation—The procedure was performed under sterile conditions. Testes from both control and CP-treated mice were removed and tunica albuginea was gently removed by scalpel knife. Seminiferous tubules (STs) were immersed with PBS and thereafter transported through a syringe 2-3 times to complete the mechanical digestion. Thereafter the STs were enzymatically digested as described by AbuMadigem et al. [International Journal of Molecular Sciences 19, 3804 (2018)].
Gene expression—RNA was extracted from isolated testicular cells, from control or CP-treated immature mice, by GenElute Mannalian Total RNA Miniprep Kit [Sigma, St. Louis, USA). cDNA synthesis was performed according to the qScript cDNA Synthesis Kit (Quantabio, Beverly, Mass., USA) and qPCR was performed using specific primers for each examined marker: ABP (forward: [sequence] (SEQ ID NO: 1); reverse: [sequence] (SEQ ID NO:2); product size, 237 bp), INHIBIN B (forward: [sequence] (SEQ ID NO:3); reverse: [sequence] (SEQ ID NO:4); product size, 209 bp), FSH-R (forward: [sequence] […] (SEQ ID NO: 6); product size, 206 bp), Transferrin (forward: [sequence] (SEQ ID NO:7); reverse: [sequence] (SEQ ID NO:8); product size: 231 bp), Housekeeping gene GAPDH (forward: [sequence] (SEQ ID NO:9); reverse: [sequence] (SEQ ID NO:10); product size, 450 bp). qPCR reaction was performed following the 2× qPCRBIO SyGreen Blue Mix Hi-ROX (PCR Biosystems Ltd, Aztec House, 397-405 Archway Road, London, UK) protocol and was performed using the LightCycler 96 real-time PCR machine (Roche, Roche Diagnostics Corporation, Roche CustomBiotech, Indianapolis, Ind., USA). Program: preincubation 10 minutes at 95° C., 40 cycles of 15 seconds at 95° C., 15 seconds at 60° C. and 10 seconds at 72° C. Melting cycle: 10 seconds at 95° C., 60 seconds at 65° C., and 1 second at 97° C. PCR products were identified by the melting curve. The “threshold cycle” (Ct) value for each transcript was identified. The relative quantity of gene expression was analyzed by the 2° method. Results were expressed as the fold of increase related to the GAPDH of the same examined sample and relatively compared to control treatment group.

[3] = tested on: spermatogonial cells isolated from CP-treated immature mice; test: In vitro culture in MCS of seminiferous tubule cells from CP-treated immature mice; marker-positive cells by immunofluorescence staining; assay type: cell-based; settings: for ACROSIN (meiotic/postmeiotic marker), percentage of stained cells / BOULE (meiotic marker), percentage of stained cells / C-KIT (pre-meiotic marker), percentage of stained cells / CD9 (pre-meiotic marker), percentage of stained cells / CREM (meiotic marker), percentage of stained cells / GFR-a (pre-meiotic marker), percentage of stained cells / VASA (pre-meiotic marker), percentage of stained cells / a-6-INTG (pre-meiotic marker), percentage of stained cells: after 4-5 weeks culture in MCS, FSH 7.5 IU/ml, IL-1α 20 pg/ml or TNF-α 20 pg/ml from the beginning, testosterone 10^−7 M at the last week
[4] = tested on: isolated seminiferous tubule cells; test: Isolated seminiferous tubule cells of 7-days-old mice cultured in MCS; premeiotic and meiotic/postmeiotic marker RNA by qPCR; assay type: cell-based; settings: GM-CSF 0.1 or 1 ng/ml for 4 weeks; testosterone 10^−7 M added after 2 weeks in control medium for additional 2 weeks; after 4 weeks of culture; compared to control cultured cells
[5] = tested on: isolated seminiferous tubule cells; test: Isolated seminiferous tubule cells of 7-days-old mice cultured in methylcellulose culture system (MCS); marker-positive cells by immunofluorescence staining; assay type: cell-based
[6] = 10-days post last CP-injection, compared to control, p<0.001
[7] = 10-days post the last CP-injection, compared to control, p<0.001
[8] = CP 100 mg/kg i.p. once a week for 3 weeks, day 10 post-treatment, compared to control, p<0.001
[9] = compared to cells cultured in control medium
[10] = GM-CSF 0.1 or 1 ng/ml for 4 weeks, testosterone 10^−7 M added after 2 weeks in control medium for additional 2 weeks, after 4 weeks of culture, compared to control cultured cells
[11] = factor from the beginning of the culture (IL-1α 10 pg/ml; IL-1β or IL-6 1, 10 or 100 pg/ml), after 4 weeks of culture, compared to control medium
[12] = IL-1α 10 pg/ml added only after 2 weeks of the culture for additional 2 weeks, compared to control medium

Molecule: O=P1(N(CCCl)CCCl)NCCCO1 (centres unmarked) [CP, cyclophosphamide]
- number of Sertoli cells (vimentin) [1, 6]: significantly reduced
- number of peritubular cells (αSMA) [1, 6]: significantly reduced
- number of cells stained positive to the meiotic/postmeiotic marker acrosin [1, 7]: significantly reduced
- number of meiotic cells stained positive to BOULE [1, 7]: significantly reduced
- number of meiotic cells stained positive to CREM [1, 7]: significantly reduced
- number of premeiotic cells stained positive to CD9 [1, 7]: significantly reduced
- number of premeiotic cells stained positive to VASA [1, 7]: significantly reduced
- number of premeiotic cells stained positive to c-KIT [1, 7]: significantly reduced
- number of premeiotic cells stained positive to α-6 INTEGRIN [1, 7]: significantly reduced
- testicular weight ([1]; CP 100 mg/kg i.p. once a week for 3 weeks, all time points during 5 weeks after the last injection, compared to control mice, p<0.001): significantly decreased
- seminiferous tubules histology ([1]; CP 100 mg/kg i.p. once a week for 3 weeks, day 10 post-treatment, compared to control): significantly impaired
- testicular cell count [1, 8]: decreased
- testicular weight [1, 8]: decreased
- seminiferous tubules histology ([1]; CP 100 mg/kg i.p. once a week for 3 weeks, during 3 weeks after the last injection): impaired
- time of most severe damage for the seminiferous tubules ([1]; CP 100 mg/kg i.p. once a week for 3 weeks, weeks post-treatment): 1-2 weeks
- expression levels of androgen binding protein (ABP) [2]: did not significantly affect
- expression levels of transferrin ([2]; p<0.01): significantly increased
- expression levels of FSH-receptor (FSH-R) ([2]; p<0.05): significantly increased
- expression levels of inhibin ([2]; p<0.05): significantly increased

Molecule: C[C@]12CC[C@H]3[C@@H](CCC4=CC(=O)CC[C@@]43C)[C@@H]1CC[C@@H]2O [testosterone, reference compound]
- ACROSIN (meiotic/postmeiotic marker), percentage of stained cells [3]: 55.53%
- BOULE (meiotic marker), percentage of stained cells [3]: 22.15%
- C-KIT (pre-meiotic marker), percentage of stained cells [3]: 11.13%
- CD9 (pre-meiotic marker), percentage of stained cells [3]: 42.63%
- CREM (meiotic marker), percentage of stained cells [3]: 38.42%
- GFR-a (pre-meiotic marker), percentage of stained cells [3]: 24.03%
- VASA (pre-meiotic marker), percentage of stained cells [3]: 23.76%
- a-6-INTG (pre-meiotic marker), percentage of stained cells [3]: 12.23%
- percentage of the meiotic/postmeiotic ACROSIN positive cells [3, 9]: significantly increased
- percentage of the other examined premeiotic and meiotic (or meiotic/postmeiotic) cells developed in MCS [3, 9]: without any significant effect
- percentage of the premeiotic CD9 positive cells [3, 9]: significantly increased

Molecule: GM-CSF
- BOULE expression levels (qPCR) [4]: significantly increased
- PLZF expression level (qPCR) [4]: significantly increased
- VASA expression level (qPCR) [4]: significantly increased
- acrosin expression levels (qPCR) [4]: did not significantly increase
- percentage of VASA positive cells [5, 10]: significantly increased
- percentage of acrosin positive cells [5, 10]: did not significantly increase
- percentages of BOULE positive cells [5, 10]: significantly increased

Molecule: IL-1β: interleukin 1 beta cytokine (PeproTech), 1, 10 or 100 pg/ml
- percentages of BOULE positive cells [5, 11]: significantly increased
- percentages of VASA positive cells [5, 11]: significantly increased
- percentages of acrosin positive cells [5, 11]: significantly increased

Molecule: IL-6: interleukin-6 cytokine (PeproTech), 1, 10 or 100 pg/ml
- percentages of BOULE positive cells [5, 11]: significantly increased
- percentages of VASA positive cells [5, 11]: significantly increased
- percentages of acrosin positive cells [5, 11]: significantly increased

Molecule: TNFα
- ACROSIN (meiotic/postmeiotic marker), percentage of stained cells [3]: 36.4%
- BOULE (meiotic marker), percentage of stained cells [3]: 21.1%
- C-KIT (pre-meiotic marker), percentage of stained cells [3]: 29.05%
- CD9 (pre-meiotic marker), percentage of stained cells [3]: 33.52%
- CREM (meiotic marker), percentage of stained cells [3]: 36.1%
- GFR-a (pre-meiotic marker), percentage of stained cells [3]: 25.3%
- VASA (pre-meiotic marker), percentage of stained cells [3]: 31.67%
- a-6-INTG (pre-meiotic marker), percentage of stained cells [3]: 25.76%
- percentage of the other examined premeiotic and meiotic (or meiotic/postmeiotic) cells developed in MCS [3, 9]: without any significant effect
- percentage of the premeiotic CD9 positive cells [3, 9]: significantly increased

B1: IL-1α: interleukin 1 alpha cytokine (BioLegend 20 pg/ml; PeproTech 10 pg/ml) (protein, UniProt P01583 113-271, looked up)
Interleukin-1 alpha: SAPFSFLSNVKYNFMRIIKYEFILNDALNQSIIRANDQYLTAAALHNLDEAVKFDMGAYKSSKDDAKITVILRISKTQLYVTAQDEDQPVLLKEMPEIPKTITGSETNLLFFWETHGTKNYFTSVAHPNLFIATKQDYWVCLAGGPPSITDFQILENQA
- ACROSIN (meiotic/postmeiotic marker), percentage of stained cells [3]: 34.27%
- BOULE (meiotic marker), percentage of stained cells [3]: 27.16%
- C-KIT (pre-meiotic marker), percentage of stained cells [3]: 16.5%
- CD9 (pre-meiotic marker), percentage of stained cells [3]: 23.4%
- CREM (meiotic marker), percentage of stained cells [3]: 30.45 + %
- GFR-a (pre-meiotic marker), percentage of stained cells [3]: 22.77%
- VASA (pre-meiotic marker), percentage of stained cells [3]: 20.8%
- a-6-INTG (pre-meiotic marker), percentage of stained cells [3]: 17.5%
- percentage of premeiotic, meiotic and meiotic/postmeiotic examined cells developed in MCS [3, 9]: did not show any significant effect
- percentages of BOULE positive cells [5, 12]: increased the percentages of BOULE positive cells, but not significantly
- percentages of VASA positive cells [5, 12]: increased the percentages of VASA positive cells, but not significantly
- percentages of acrosin cells [5, 12]: increased the percentages of acrosin cells, but not significantly
- percentages of BOULE positive cells [5, 11]: significantly increased
- percentages of VASA positive cells [5, 11]: significantly increased
- percentages of acrosin positive cells [5, 11]: significantly increased
